Results from paper PMC9894184 (Proceedings of the National Academy of Sciences of the …, 2022).

Target: dFASN (FASN1), recombinant full-length (Drosophila melanogaster, UniProt B7Z001)
Experiment: NADPH oxidation FASN activity assay, Michaelis-Menten fit
Format: biochemical
Details: 240 µM NADPH, 58 µM malonyl-CoA fixed

dFASN (FASN1), recombinant full-length, sequence (B7Z001 1-2540): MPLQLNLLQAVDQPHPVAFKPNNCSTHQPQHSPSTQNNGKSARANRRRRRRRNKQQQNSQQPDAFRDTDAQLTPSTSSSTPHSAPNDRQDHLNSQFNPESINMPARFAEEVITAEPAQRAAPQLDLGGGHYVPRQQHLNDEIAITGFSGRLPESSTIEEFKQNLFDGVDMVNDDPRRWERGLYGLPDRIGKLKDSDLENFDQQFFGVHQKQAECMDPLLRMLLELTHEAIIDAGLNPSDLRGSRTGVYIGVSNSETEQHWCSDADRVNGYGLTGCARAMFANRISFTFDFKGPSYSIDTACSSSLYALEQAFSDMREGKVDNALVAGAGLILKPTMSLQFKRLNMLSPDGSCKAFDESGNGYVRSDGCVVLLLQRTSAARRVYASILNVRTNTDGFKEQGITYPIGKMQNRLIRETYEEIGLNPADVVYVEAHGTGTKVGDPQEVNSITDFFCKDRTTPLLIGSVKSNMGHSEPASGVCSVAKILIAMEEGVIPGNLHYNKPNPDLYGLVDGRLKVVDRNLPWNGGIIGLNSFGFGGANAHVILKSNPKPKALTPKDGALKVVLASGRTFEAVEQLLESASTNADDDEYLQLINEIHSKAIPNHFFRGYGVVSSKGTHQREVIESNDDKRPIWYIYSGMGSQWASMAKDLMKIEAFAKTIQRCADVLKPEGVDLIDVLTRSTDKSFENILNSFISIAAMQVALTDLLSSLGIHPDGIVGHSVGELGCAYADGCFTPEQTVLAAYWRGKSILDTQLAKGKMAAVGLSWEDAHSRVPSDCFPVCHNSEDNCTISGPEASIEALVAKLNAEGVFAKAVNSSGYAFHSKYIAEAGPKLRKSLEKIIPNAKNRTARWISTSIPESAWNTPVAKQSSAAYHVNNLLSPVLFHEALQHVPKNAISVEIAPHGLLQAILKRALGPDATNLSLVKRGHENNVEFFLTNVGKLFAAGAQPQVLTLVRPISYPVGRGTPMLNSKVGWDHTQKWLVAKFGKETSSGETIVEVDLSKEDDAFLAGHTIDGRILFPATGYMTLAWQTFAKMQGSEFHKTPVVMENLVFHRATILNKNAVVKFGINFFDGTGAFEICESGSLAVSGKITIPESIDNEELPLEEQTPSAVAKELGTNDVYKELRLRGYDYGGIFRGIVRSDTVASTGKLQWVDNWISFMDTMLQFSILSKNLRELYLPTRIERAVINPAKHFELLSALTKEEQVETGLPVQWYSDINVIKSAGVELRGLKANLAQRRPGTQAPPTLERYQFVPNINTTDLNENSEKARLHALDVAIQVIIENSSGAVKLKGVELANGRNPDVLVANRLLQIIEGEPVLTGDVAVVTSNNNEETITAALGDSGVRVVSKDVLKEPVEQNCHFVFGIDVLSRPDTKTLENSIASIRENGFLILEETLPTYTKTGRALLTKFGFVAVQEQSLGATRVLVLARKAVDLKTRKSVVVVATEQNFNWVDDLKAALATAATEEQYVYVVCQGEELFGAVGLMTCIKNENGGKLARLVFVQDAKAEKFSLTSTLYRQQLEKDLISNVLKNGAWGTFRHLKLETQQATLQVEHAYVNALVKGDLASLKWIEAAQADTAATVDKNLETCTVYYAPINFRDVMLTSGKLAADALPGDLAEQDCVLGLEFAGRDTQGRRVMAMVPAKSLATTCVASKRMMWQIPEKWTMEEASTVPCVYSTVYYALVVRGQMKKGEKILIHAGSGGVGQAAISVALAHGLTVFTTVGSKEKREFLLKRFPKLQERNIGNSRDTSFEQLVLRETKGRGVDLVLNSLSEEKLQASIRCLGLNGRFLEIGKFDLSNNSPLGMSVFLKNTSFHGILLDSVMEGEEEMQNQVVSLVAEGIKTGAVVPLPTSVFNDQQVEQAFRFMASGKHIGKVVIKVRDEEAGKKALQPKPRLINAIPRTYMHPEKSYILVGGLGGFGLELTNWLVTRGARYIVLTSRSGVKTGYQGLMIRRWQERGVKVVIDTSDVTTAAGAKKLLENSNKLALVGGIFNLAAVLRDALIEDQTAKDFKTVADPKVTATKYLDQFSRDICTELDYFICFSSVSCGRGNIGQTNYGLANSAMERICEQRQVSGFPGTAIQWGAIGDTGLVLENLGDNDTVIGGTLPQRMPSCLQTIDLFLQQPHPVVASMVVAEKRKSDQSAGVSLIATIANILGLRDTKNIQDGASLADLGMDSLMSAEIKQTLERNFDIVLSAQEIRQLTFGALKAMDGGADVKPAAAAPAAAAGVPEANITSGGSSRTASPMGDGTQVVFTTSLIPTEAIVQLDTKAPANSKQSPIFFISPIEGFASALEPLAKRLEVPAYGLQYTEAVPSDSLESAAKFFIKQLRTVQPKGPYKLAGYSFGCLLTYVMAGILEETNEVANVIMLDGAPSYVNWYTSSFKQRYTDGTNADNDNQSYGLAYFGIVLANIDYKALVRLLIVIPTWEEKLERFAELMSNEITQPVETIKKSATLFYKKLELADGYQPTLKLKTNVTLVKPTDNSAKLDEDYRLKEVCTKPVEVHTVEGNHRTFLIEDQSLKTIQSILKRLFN

CC(=O)SCCNC(=O)CCNC(=O)[C@H](O)C(C)(C)COP(=O)(O)OP(=O)(O)OC[C@H]1O[C@@H](n2cnc3c(N)ncnc32)[C@H](O)[C@@H]1OP(=O)(O)O [acetyl-CoA]
Km: Steady-state kinetics over AcCoA was also evaluated
